Experimental data as given in US8741602B2, “Method for producing glucuronic acid conjugate using Saccharomyces cerevisiae” (Toyama Prefecture, priority 2010, dated 2014).
Read-outs that look alike come from different tables or passages of the source.

What was measured:
UGT1A6 [1] = target: T1, UGT1A6 (Homo sapiens, UniProt P19224); design: host or cells: Schizosaccharomyces pombe; conditions: fission yeast, Dragan et al.; cited from earlier work
T1 sequence (P19224 27-532): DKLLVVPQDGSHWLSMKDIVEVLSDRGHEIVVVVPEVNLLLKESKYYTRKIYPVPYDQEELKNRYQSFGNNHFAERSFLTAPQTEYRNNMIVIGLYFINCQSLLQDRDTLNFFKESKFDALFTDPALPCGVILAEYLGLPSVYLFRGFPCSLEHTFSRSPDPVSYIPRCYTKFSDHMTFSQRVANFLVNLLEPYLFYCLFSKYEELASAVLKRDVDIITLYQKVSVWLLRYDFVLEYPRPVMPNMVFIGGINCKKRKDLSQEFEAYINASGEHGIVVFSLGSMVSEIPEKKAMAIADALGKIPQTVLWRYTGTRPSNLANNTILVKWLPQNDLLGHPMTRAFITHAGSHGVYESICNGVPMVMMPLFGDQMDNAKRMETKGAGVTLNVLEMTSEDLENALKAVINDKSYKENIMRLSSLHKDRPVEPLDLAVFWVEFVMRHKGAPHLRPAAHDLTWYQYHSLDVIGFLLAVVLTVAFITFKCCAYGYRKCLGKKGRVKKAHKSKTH

UGT1A6 [2] = target: T1, UGT1A6; test: Glucuronide production in resting S. cerevisiae AH22 cells co-expressing UDPGDH and UGT1A6; type: cell-based; design: expressed in transfected cells; host or cells: Saccharomyces cerevisiae AH22; conditions: UGT1A6
Method: Each phase was analyzed by UPLC system.
Time course of conversion in the transformant with the highest activity of glucuronidation (AH22: pAUR/At.UDPGDH+pGYR/hUGT1A6) was examined (FIG. 6).
Glucose concentration dependence of conversion in the transformant with the highest activity of glucuronidation (AH22: pAUR/At.UDPGDH+pGYR/hUGT1A6) was examined (FIG. 7).

UGT1A1 = target: T2, UGT1A1 (Homo sapiens, UniProt P22309); conditions: fission yeast, Dragan et al.; cited from earlier work
T2 construct: host or cells: Schizosaccharomyces pombe
T2 sequence (P22309 26-533): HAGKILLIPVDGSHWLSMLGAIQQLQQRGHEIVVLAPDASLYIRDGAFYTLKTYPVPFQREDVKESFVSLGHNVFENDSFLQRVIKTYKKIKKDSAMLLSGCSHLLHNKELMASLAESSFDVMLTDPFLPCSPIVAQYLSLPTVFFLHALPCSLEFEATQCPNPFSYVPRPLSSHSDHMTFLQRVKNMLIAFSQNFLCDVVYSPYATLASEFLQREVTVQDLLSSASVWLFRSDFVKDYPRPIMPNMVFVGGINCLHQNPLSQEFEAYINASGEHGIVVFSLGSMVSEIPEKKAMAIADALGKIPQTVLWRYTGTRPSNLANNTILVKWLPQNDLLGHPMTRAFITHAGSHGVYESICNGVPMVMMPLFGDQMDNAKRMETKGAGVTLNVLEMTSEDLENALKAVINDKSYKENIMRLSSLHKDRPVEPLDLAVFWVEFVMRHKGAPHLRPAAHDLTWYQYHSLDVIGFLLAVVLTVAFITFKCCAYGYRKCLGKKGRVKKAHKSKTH

hUGT1A1 = target: T3, hUGT1A1 (Homo sapiens, UniProt P22309); test: Glucuronide production in resting S. cerevisiae AH22 cells co-expressing UDPGDH and UGT1A1; conditions: UGT1A1
T3 sequence (P22309 28-533): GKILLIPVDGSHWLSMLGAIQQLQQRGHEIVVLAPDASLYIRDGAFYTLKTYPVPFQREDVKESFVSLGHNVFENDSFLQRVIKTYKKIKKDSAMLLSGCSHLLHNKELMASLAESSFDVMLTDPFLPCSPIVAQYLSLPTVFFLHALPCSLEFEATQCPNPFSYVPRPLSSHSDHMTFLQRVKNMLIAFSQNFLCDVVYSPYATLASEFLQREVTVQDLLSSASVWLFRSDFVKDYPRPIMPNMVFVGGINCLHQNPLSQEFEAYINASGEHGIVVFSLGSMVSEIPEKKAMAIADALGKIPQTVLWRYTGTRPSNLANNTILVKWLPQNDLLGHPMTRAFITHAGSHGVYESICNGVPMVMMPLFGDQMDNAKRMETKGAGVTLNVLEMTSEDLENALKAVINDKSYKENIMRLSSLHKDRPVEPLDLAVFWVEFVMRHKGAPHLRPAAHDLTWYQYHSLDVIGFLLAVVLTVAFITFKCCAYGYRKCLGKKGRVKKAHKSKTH
Method: To confirm the production of 7-hydroxycoumarine glucuronide in the resting yeast cells containing UDPGDH and UGT, transformants were cultivated in selection medium at 30° C., 48 hrs, and the resultant yeast cells were suspended with appropriate buffer solution containing 0.1-1 mM 7-hydroxycoumarine and 1-8% (w/v) glucose. After incubation at 30° C., 24 hrs, 2-fold volume of chloroform:methanol (3:1, v/v) was added to reaction medium containing yeast cells. Centrifugation of extracts was separated to upper water and lower organic phase. Lower organic phase were evaporated and redissolved in 200 μl acetonitrile. Each phase was analyzed by UPLC system. Condition of analysis are described below; column: Cosmosil 2.5C18-MS-II (2.0 mm×100 mm, nacalai tesque), flow rate 0.5 ml/min, detection 320 nm, temperature 45° C. Condition of gradient elution: water-acetonitrile with 0.5% (v/v) trifluoroacetic acid, 10% (v/v) acetonitrile (4 min), 10-70% acetonitrile (6 min), 70-10% acetonitrile (2 min), 10% acetonitrile (4 min).
To confirm the production of quercetin glucuronide in the resting yeast cells containing UDPGDH and UGT (pAUR/At.UDPGDH+pGYR/hUGT1A1), transformants were cultivated in selection medium at 30° C., 48 hrs, and the resultant yeast cells were suspended with 0.1 M potassium phosphate buffer (pH 7.4) containing 0.2 mM quercetin and 8% (w/v) glucose. After incubation at 30° C., 24 hrs, 2-fold volume of chloroform:methanol (3:1, v/v) was added to reaction medium containing yeast cells. Centrifugation of extracts was separated to upper water and lower organic phase. Lower organic phase were evaporated and redissolved in 200 μl acetonitrile. Quercetin glucuronides in yeast cells was isolated and detected by WAKOPAK™ Navi C30-5 (3 mm×150 mm, Wako Chemical)-column-HPLC system with followed condition; flow rate; 0.4 ml/min, detection; 370 nm, temperature 37° C. Condition of gradient elution: water-acetonitrile with 0.5% (v/v) phosphoric acid, 18% (v/v) acetonitrile (10 min), 18-55% acetonitrile (10 min), 55% acetonitrile (5 min).
To compare the production ability of glucuronide in budding (Saccharomyces cerevisiae) and fission yeast (Schizosaccharomyces pombe) containing UDPGDH and UGT, several transformants (No. 4 in Table 2 and transformant with N-terminal modified UGT1A1) were selected for the assay. These transformants were cultivated in selection medium at 30° C., 48 hrs, and the resultant yeast cells were suspended with appropriate buffer solution containing 0.5 mM 4-methylumberrferone and 8% (w/v) glucose. After incubation at 30° C., 24 hrs, 2-fold volume of chloroform:methanol (3:1, v/v) was added to reaction medium containing yeast cells. Centrifugation of extracts was separated to upper water and lower organic phase. Lower organic phase were evaporated and redissolved in 200 μl acetonitrile. Each phase was analyzed by UPLC system.
Condition of analysis are described below; column: COSMOSIL™ 2.5C18-MS-II (2.0 mm×100 mm, Nacalai Tesque), flow rate 0.5 ml/min, detection 320 nm, temperature 45° C. Condition of gradient elution: water-acetonitrile with 0.1% (v/v) trifluoroacetic acid, 10% acetonitrile (4 min), 10-70% acetonitrile (6 min), 70-10% acetonitrile (2 min), 10% acetonitrile (3 min).

CYP2D6 and UGT1A8 = target: T4, CYP2D6 and UGT1A8 (Homo sapiens, UniProt P10635); test: Resting yeast cells with UDPGDH, human UGT and human P450; type: cell-based; conditions: human P450 2D6 and human UGT1A8; 1 mM 7-ethoxycoumarine
T4 construct: expressed in transfected cells; host or cells: Saccharomyces cerevisiae
T4 sequence (P10635 whole entry): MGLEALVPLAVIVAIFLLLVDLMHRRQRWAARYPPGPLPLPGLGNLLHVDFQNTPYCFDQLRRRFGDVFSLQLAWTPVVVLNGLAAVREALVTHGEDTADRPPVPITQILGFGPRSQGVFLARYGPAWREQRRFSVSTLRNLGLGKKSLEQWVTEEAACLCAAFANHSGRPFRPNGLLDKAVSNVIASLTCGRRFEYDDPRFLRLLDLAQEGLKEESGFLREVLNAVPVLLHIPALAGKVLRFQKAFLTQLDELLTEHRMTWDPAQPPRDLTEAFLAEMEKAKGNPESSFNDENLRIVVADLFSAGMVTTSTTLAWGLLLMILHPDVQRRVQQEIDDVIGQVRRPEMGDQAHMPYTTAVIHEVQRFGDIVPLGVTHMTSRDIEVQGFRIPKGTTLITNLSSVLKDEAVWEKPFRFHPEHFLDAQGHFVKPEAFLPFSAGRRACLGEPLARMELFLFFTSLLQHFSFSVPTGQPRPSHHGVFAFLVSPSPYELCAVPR
Method: To achieve the sequential production of hydroxyl intermediate and glucuronidation, co-expression yeast system containing UDPGDH, UGT, and P450 was constructed using combination of expression vectors (pAUR-ratUDPGDH/UGT1A6 and pPYR/humanCYP).
Each phase was analyzed by UPLC system (FIG. 15 and Table 7).
FIG. 15 indicated reverse phase HPLC elution pattern of metabolites from 7-ethoxycoumarine using resting yeast cells containing UDPGDH, human UGT1A8, and human P450 2D6. […] Each hydroxyl intermediates further were metabolized to corresponding glucuronides by human UGT1A8.

ratCYP1A1 and UGT1A6 = target: T5, ratCYP1A1 and UGT1A6 (UniProt P00185+P19224); test: Resting yeast cells co-expressing UDPGDH, UGT1A6 and rat CYP1A1; type: cell-based; conditions: 1 mM 7-ethoxycoumarine, 8% glucose, 30° C., 72 hrs
T5 construct: expressed in transfected cells; host or cells: Saccharomyces cerevisiae AH22
T5 sequence (P00185 2-524): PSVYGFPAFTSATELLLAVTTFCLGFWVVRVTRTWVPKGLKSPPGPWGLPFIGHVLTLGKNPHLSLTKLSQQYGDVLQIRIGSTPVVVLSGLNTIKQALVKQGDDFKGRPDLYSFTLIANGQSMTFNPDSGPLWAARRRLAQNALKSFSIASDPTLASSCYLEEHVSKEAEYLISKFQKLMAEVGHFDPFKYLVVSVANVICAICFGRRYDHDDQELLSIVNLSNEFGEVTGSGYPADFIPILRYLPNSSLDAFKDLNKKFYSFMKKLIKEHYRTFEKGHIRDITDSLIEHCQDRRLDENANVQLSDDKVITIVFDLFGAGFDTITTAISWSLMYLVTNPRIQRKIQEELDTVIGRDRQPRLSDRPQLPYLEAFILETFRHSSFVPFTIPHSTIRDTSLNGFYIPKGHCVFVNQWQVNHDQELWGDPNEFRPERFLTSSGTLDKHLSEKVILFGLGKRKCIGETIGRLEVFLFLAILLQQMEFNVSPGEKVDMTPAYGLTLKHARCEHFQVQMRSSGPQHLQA
T5 sequence (P19224 27-532): T1 sequence (P19224 27-532)
From the text: In the precursor of most glucuronide, hydroxyl groups are introduced by P450-dependent monooxynenation. To analyze the structure and function of these xenobiotic metabolizing enzymes the expression system of several mammalian P450 and UGT isoforms was constructed in budding yeast cells, Saccharomyces cerevisiae AH22. This in vitro system is able to convert 7-ethoxycoumarine to its glucuronide via hydroxyl intermediate, 7-hydroxycoumarine (Ref 6). Yeast cells lack the ability of production of UDP-glucuronic acid (UDP-GlcUA) from UDP-glucose to synthesize the glucuronide in whole cells. To achieve the sequential production of hydroxyl intermediate and glucuronidation, co-expression yeast system containing UDPGDH, UGT, and P450 was constructed using combination of expression vectors (pAUR-At.UDPGDH/UGT1A6 and pGYR/ratCYP1A1, No. 5 in Table 2). […] Each phase was analyzed by UPLC system (FIG. 13).

[3] = budding yeast, 0.5 mM 4-methylumberrferone, 8% (w/v) glucose, 30° C., 24 hrs

Row | production ratio of glucuronide, budding yeast higher than fission yeast (UGT1A6 [2]) | production of glucuronide (UGT1A6 [2]; [3]) [µM/day] | production ratio of glucuronide, budding yeast higher than fission yeast (hUGT1A1) | production of glucuronide per biomass dry weight (hUGT1A1; budding yeast) [µmol/day/g dry weight] | production of glucuronide (hUGT1A1; [3]) [µM/day] | Structure (SMILES) | production of glucuronide (UGT1A6 [1]) [µM/day] | production of glucuronide (UGT1A1) [µM/day] | production of glucuronide per biomass dry weight (UGT1A1) [µmol/day/g dry weight] | metabolites formed (FIG. 15) (CYP2D6 and UGT1A8) | sequential P450-UGT metabolism (FIG. 13) (ratCYP1A1 and UGT1A6)
1 | 50 | 195.7 | 10 | 2.6 | 20.2 | Cc1cc(=O)oc2cc(O[C@@H]3O[C@H](C(=O)O)[C@@H](O)[C@H](O)[C@H]3O)ccc12.O [4-metylumberrferone glucuronide, 4-methylumberrferone glucuronide] | 3.5 | 1.8 | 0.14 | – | –
2 | – | – | – | – | – | CCOc1ccc2ccc(=O)oc2c1 [7-ethoxycoumarine] | – | – | – | metabolized to 7-hydroxycoumarine or 3-hydroxy-7-ethoxycoumarine by human P450 2D6 | deethylated by P4501A1 and the resultant 7-hydroxycoumarine (●) was glucuronidated by UGT1A6 to its glucuronide
